Earlier results in patent publication US20040266821A1, “Acylated piperidine derivatives as melanocortin-4 receptor agonists” (priority 2001, published 2004).

Columns and labels:
[1] = oral route
[2] = not given; remark: listed apart in the source

Compound | duration of effect (after an oral dose) | onset of action (after an oral dose) | share of men/patients with adequate response (oral) | absorption into the systemic circulation [1] | duration of action ([2]; in vivo) | time to onset of erection ([2]; in vivo) | response rate ([2]; injected intramuscularly or subcutaneously)
Cc1ccc(N(CC2=NCCN2)c2cccc(O)c2)cc1 [phentolamine] | 2 h | 5 to 30 min | 35-40% |  |  |  | 
Ac-Nle-c[Asp-His-DPhe-Arg-Trp-Lys]-NH2 [MT-II] |  |  |  | not absorbed into the systemic circulation | approximately 2.5 hours | 10 to 20 min | 75%
